In ChEMBL document CHEMBL5042522, “One- and Two-Photon Uncaging of Carbon Monoxide (CO) with Real-Time Monitoring: On-Demand Carbazole-Based Dual CO-Releasing Platform to Test over Single and Combinatorial Approaches for the Efficient Regression of Orthotopic Murine Melanoma In Vivo” (J Med Chem, 2022):
Active and inactive are the calls of the source. The rule behind the calls is not given here.

Assays:
B16-F10 [1] = experiment: Induction of apoptosis in mouse B16-F10 cells assessed as late apoptotic cells at 5 uM incubated for 24 hrs by annexin-V-FITC and PI staining based flow cytometry analysis (reference value: 0.1 %); format: functional
HEK293 [2] = experiment: Induction of apoptosis in HEK293 cells assessed as viable cells at 5 uM with light irradiation incubated for 24 hrs by annexin-V-FITC and PI staining based flow cytometry analysis (reference value: 99.9 %); format: functional; conditions: Homo sapiens, HEK293, light or radiation study, read-out: Activity
HEK293 [3] = experiment: Induction of apoptosis in HEK293 cells assessed as early apoptotic cells at 5 uM with light irradiation incubated for 24 hrs by annexin-V-FITC and PI staining based flow cytometry analysis (reference value: 0.1 %); format: functional, Homo sapiens
[4] = Biodistribution in kidney of C57BL/6 mouse model harboring mouse B16-F10 cells at 0.4 mg/kg, iv irradiated with >= 365 nm Hg lamp for 10 mins measured after 24 hrs post-administration by fluorescence based assay; format: ADME, organism-based; conditions: in vivo, 24.17 h, time 1450 min
[5] = Stability of compound in PBS buffer at pH 7.4 at 100 uM incubated for 72 hrs under dark condition by RP-HPLC analysis; format: physicochemical; conditions: read-out: Stability
HEK293 [6] = experiment: Induction of apoptosis in HEK293 cells assessed as necrotic cells at 5 uM incubated for 24 hrs by annexin-V-FITC and PI staining based flow cytometry analysis (reference value: 0 %); format: functional, Homo sapiens
[7] = Photorelease ability in PBS buffer at pH 7.4 assessed as compound decomposition at 0.1 mM irradiated with pulsed laser at 730 nm for 30 mins by RP-HPLC analysis; format: physicochemical; conditions: read-out: Drug degradation
HEK293 [8] = experiment: Induction of apoptosis in HEK293 cells assessed as late apoptotic cells at 5 uM incubated for 24 hrs by annexin-V-FITC and PI staining based flow cytometry analysis (reference value: 0 %); format: functional, Homo sapiens
[9] = Photorelease activity in PBS buffer at pH 7.4 assessed as release of CO using 3',6'-Bis(allyloxy)-3H-spiro(isobenzofuran-1,9'-xanthen)-3-one fluorescent probe by measuring red shift absorption spectra at 500 uM irradiated with >= 365 nm Hg lamp in presence of PdCl2 by absorption spectroscopy; format: physicochemical; conditions: pH 7.4, 500 µM, TDE = time-dependent effect
[10] = Biodistribution in heart of C57BL/6 mouse model harboring mouse B16-F10 cells at 0.4 mg/kg, iv irradiated with >= 365 nm Hg lamp for 10 mins measured after 24 hrs post-administration by fluorescence based assay; format: ADME, organism-based; conditions: in vivo, 24.17 h, time 1450 min
[11] = Drug uptake in mouse B16-F10 cells assessed as drug internalization by measuring blue fluorescence at 20 uM incubated for 4 hrs followed by propidium iodide staining based confocal laser scanning microscopy; format: ADME, cell-based; conditions: b16-f10, 4 h
[12] = Photorelease ability in PBS buffer at pH 7.4 assessed as retention time of 4-(6-(2,2-dihydroxyacetyl)-9-ethyl-9H-carbazol-3-yl)-1,3-dioxol-2-one formation at 100 uM irradiated with >= 365 nm Hg lamp for 30 mins by RP-HPLC analysis; format: physicochemical; conditions: pH 7.4, 0.5 h
[13] = Toxicity in C57BL/6J mouse model harboring mouse B16-F10 cells assessed as tumor tissue necrosis at 0.4 mg/kg, iv administered alternate days for 24 days followed by irradiation with pulsed laser at 730 nm for 10 mins after 24 hrs each post-injection by hematoxylin and eosin staining based assay; format: organism-based; conditions: in vivo, 600 h, 0.73 µM, time 25 day
B16-F10 [14] = experiment: Antitumor activity against mouse B16-F10 cells bearing C57BL/6J mouse assessed as tumor regression at 0.4 mg/kg, iv administered alternate days for 24 days followed by irradiation with pulsed laser at 730 nm for 10 mins after 24 hrs each post-injection and measured on day 25 by slide caliper method; format: functional, organism-based; conditions: time 25.0 day
[15] = Toxicity in C57BL/6J mouse model harboring mouse B16-F10 cells assessed as spleen tissue necrosis at 0.4 mg/kg, iv administered alternate days for 24 days followed by irradiation with pulsed laser at 730 nm for 10 mins after 24 hrs each post-injection by hematoxylin and eosin staining based assay; format: organism-based; conditions: in vivo, 600 h, 0.73 µM, time 25 day
[16] = Toxicity in C57BL/6J mouse model harboring mouse B16-F10 cells assessed as liver tissue necrosis at 0.4 mg/kg, iv administered alternate days for 24 days followed by irradiation with pulsed laser at 730 nm for 10 mins after 24 hrs each post-injection by hematoxylin and eosin staining based assay; format: organism-based; conditions: in vivo, 600 h, 0.73 µM, time 25 day
[17] = Photorelease activity in PBS buffer at pH 7.4 assessed as release of CO in absence of light irradiation by absorption spectroscopy; format: physicochemical
B16-F10 [18] = experiment: Induction of apoptosis in mouse B16-F10 cells assessed as viable cells at 5 uM incubated for 24 hrs by annexin-V-FITC and PI staining based flow cytometry analysis (reference value: 99.9 %); format: functional; conditions: read-out: Activity
B16-F10 [19] = experiment: Induction of apoptosis in mouse B16-F10 cells assessed as necrotic cells at 5 uM incubated for 24 hrs by annexin-V-FITC and PI staining based flow cytometry analysis (reference value: 0 %); format: functional
[20] = Toxicity in C57BL/6J mouse model harboring mouse B16-F10 cells assessed as lung tissue necrosis at 0.4 mg/kg, iv administered alternate days for 24 days followed by irradiation with pulsed laser at 730 nm for 10 mins after 24 hrs each post-injection by hematoxylin and eosin staining based assay; format: organism-based; conditions: in vivo, 600 h, 0.73 µM, time 25 day
[21] = Photorelease activity in PBS buffer at pH 7.4 assessed as 1,1'-(9-ethyl-9H-carbazole-3,6-diyl)bis(2,2-dihydroxyethanone) photoproduct formation by measuring lambda 485 nm green emission band excited at wavelength of 350 nm for 30 mins by fluorescence spectroscopy; format: physicochemical; conditions: pH 7.4, 0.5 h
B16-F10 [22] = experiment: Induction of apoptosis in mouse B16-F10 cells assessed as necrotic cells at 5 uM with light irradiation incubated for 24 hrs by annexin-V-FITC and PI staining based flow cytometry analysis (reference value: 0 %); format: functional
B16-F10 [23] = experiment: Induction of apoptosis in mouse B16-F10 cells assessed as late apoptotic cells at 5 uM with light irradiation incubated for 24 hrs by annexin-V-FITC and PI staining based flow cytometry analysis (reference value: 0.1 %); format: functional
HEK293 [24] = experiment: Induction of apoptosis in HEK293 cells assessed as viable cells at 5 uM incubated for 24 hrs by annexin-V-FITC and PI staining based flow cytometry analysis (reference value: 99.9 %); format: functional; conditions: Homo sapiens, read-out: Activity
HEK293 [25] = experiment: Induction of apoptosis in HEK293 cells assessed as early apoptotic cells at 5 uM incubated for 24 hrs by annexin-V-FITC and PI staining based flow cytometry analysis (reference value: 0.1 %); format: functional, Homo sapiens
[26] = Photorelease ability in PBS buffer at pH 7.4 assessed as retention time of 1,1'-(9-ethyl-9H-carbazole-3,6-diyl)bis(2,2-dihydroxyethanone) formation at 100 uM irradiated with >= 365 nm Hg lamp for 30 mins by RP-HPLC analysis; format: physicochemical; conditions: pH 7.4, 0.5 h
[27] = Stability of compound in PBS buffer at pH 7.4 at 100 uM incubated for 72 hrs under dark condition in presence of cysteine by Reverse-phase HPLC analysis; format: physicochemical; conditions: read-out: Stability
B16-F10 [28] = experiment: Induction of apoptosis in mouse B16-F10 cells assessed as early apoptotic cells at 5 uM incubated for 24 hrs by annexin-V-FITC and PI staining based flow cytometry analysis (reference value: 0 %); format: functional

`CCn1c2ccc(-c3coc(=O)o3)cc2c2cc(-c3coc(=O)o3)ccc21` showed an Activity (B16-F10 [1]) of 0%, a viability at 5 µM (HEK293 [2]) of 46.4% and an Activity (HEK293 [3]) of 46.3%. The Drug uptake [4] was “Active”, the remaining at 72 h, 100 µM [5] was 96% and the Activity (HEK293 [6]) was 0%. For the same compound, the degraded at 0.5 h, 100 µM [7] was 37%, the Activity (HEK293 [8]) was 0.2% and the Drug metabolism [9] was “Tde”. The Drug uptake [10] was “Active”, the Drug uptake [11] was “Active” and the Retention_time [12] was 8.05 min. For the same compound, the Activity [13] was “Toxic”, the Activity (B16-F10 [14]) was “Active” and the Activity [15] was “Non-Toxic”. The Activity [16] was “Non-Toxic”, the Drug metabolism [17] was “Not Active” and the viability at 5 µM (B16-F10 [18]) was 99%. For the same compound, the Activity (B16-F10 [19]) was 0%, the Activity [20] was “Non-Toxic” and the Drug metabolism [21] was “Active”. The Activity (B16-F10 [22]) was 0.5%, the Activity (B16-F10 [23]) was 15.4% and the viability at 5 µM (HEK293 [24]) was 98.9%. For the same compound, the Activity (HEK293 [25]) was 0.9%, the Retention_time [26] was 8.82 min and the remaining at 72 h, 100 µM [27] was 92%. The Activity (B16-F10 [28]) was 1%.
